# Where two headings read alike, the source gives them in different places.
# What was measured:
# Leptosphaeria nodorum = Leptosphaeria nodorum test (wheat)/protective; assay type: in vivo; settings: Parastagonospora nodorum, 240 h, protective spray, active compound concentration 1000 ppm, evaluation 10 days after inoculation, read-out: efficacy
# Protocol: Leptosphaeria Nodorum Test (Wheat)/Protective [table] […] After the spray coating has dried on, the plants are sprayed with a spore suspension of Leptosphaeria nodorum. The plants remain in an incubation cabin at 20° C. and 100% relative atmospheric humidity for 48 hours. The plants are placed in a greenhouse at a temperature of about 20° C. and a relative atmospheric humidity of 80%.
# [1] = logP determination by retention times (calibration with alkan-2-ones)
# Phytophthora infestans = assay: whole plant or invertebrate; assay type: in vivo; settings: in Solanum lycopersicum, 168 h, read-out: efficacy
# Fusarium graminearum = assay: whole plant or invertebrate; assay type: in vivo; settings: in Hordeum vulgare, 96 h, read-out: efficacy
# [2] = logP, * HPLC reversed-phase C18, 40° C., mobile phase 0.1% aqueous formic acid and acetonitrile, linear gradient 10% to 95% acetonitrile
SMILES,pest or weed control at 1000 ppm (Leptosphaeria nodorum) [%],chromatographic logP [1],pest or weed control at 500 ppm (Phytophthora infestans) [%],pest or weed control at 1000 ppm (Fusarium graminearum) [%],"chromatographic logP [1, 2]"
"CC(=O)c1cccc(Nc2nccc(-c3sc(C4CC4)nc3C)n2)c1 [Example 7, 1-(3-{[4-(2-cyclopropyl-4-methyl-1,3-thiazol-5-yl)pyrimidin-2-yl]amino}phenyl)ethanone]",≥ 70,2.88,–,–,–
"Cc1nc(C)c(-c2ccnc(Nc3ccc(N(C)C)c(Cl)c3)n2)s1 [Example 62, 2-chloro-N4-[4-(2,4-dimethyl-1,3-thiazol-5-yl)pyrimidin-2-yl]-N1,N1-dimethylbenzene-1,4-diamine]",≥ 70,2.06,–,–,–
"CCc1nc(C)c(-c2ccnc(Nc3ccc(NC(=O)OCCOC)cc3)n2)s1 [Example 73, 2-methoxyethyl-(4-{[4-(2-ethyl-4-methyl-1,3-thiazol-5-yl)pyrimidin-2-yl]amino}phenyl)carbamate]",≥ 70,2.36,≥ 70,–,–
"Cc1nc(C(C)C)sc1-c1ccnc(Nc2cccc(O)c2)n1 [Example 151, 3-{[4-(2-isopropyl-4-methyl-1,3-thiazol-5-yl)pyrimidin-2-yl]amino}phenol]",≥ 70,2.42,–,≥ 70,–
"COc1cc(Nc2nccc(-c3sc(C)nc3C)n2)cc(OC)c1OC [Example 182, 4-(2,4-dimethyl-1,3-thiazol-5-yl)-N-(3,4,5-trimethoxyphenyl)pyrimidine-2-amine]",≥ 70,2.1,≥ 70,≥ 70,–
"Cc1nc(C)c(-c2ccnc(Nc3ccccc3)n2)s1 [Example 190, 4-(2,4-dimethyl-1,3-thiazol-5-yl)-N-phenylpyrimidine-2-amine]",≥ 70,2.4,–,≥ 70,–
"CCc1nc(C)c(-c2ccnc(Nc3ccc(OC)nc3)n2)s1 [Example 240, 4-(2-ethyl-4-methyl-1,3-thiazol-5-yl)-N-(6-methoxypyridin-3-yl)pyrimidine-2-amine]",≥ 70,2.33,–,≥ 70,–
"COc1cc(Nc2nccc(-c3sc(C(C)C)nc3C)n2)cc(OC)c1OC [Example 244, 4-(2-isopropyl-4-methyl-1,3-thiazol-5-yl)-N-(3,4,5-trimethoxyphenyl)pyrimidine-2-amine]",≥ 70,2.99,–,≥ 70,–
"COc1ccc(Nc2nccc(-c3sc(C(C)C)nc3C)n2)cn1 [Example 247, 4-(2-isopropyl-4-methyl-1,3-thiazol-5-yl)-N-(6-methoxypyridin-3-yl)pyrimidine-2-amine]",≥ 70,2.76,≥ 70,≥ 70,–
"Cc1nc(C(C)C)sc1-c1ccnc(Nc2ccccc2)n1 [Example 251, 4-(2-isopropyl-4-methyl-1,3-thiazol-5-yl)-N-phenylpyrimidine-2-amine]",≥ 70,3.55,≥ 70,≥ 70,–
"CC(=O)Nc1ccc(Nc2nccc(-c3sc(C(C)C)nc3C)n2)cc1 [Example 461, N-(4-{[4-(2-isopropyl-4-methyl-1,3-thiazol-5-yl)pyrimidin-2-yl]amino}phenyl)acetamide]",≥ 70,–,–,≥ 70,2.15
"Cc1nc(C)c(-c2ccnc(Nc3ccc(F)cc3F)n2)s1 [Example 759, N-(2,4-difluorophenyl)-4-(2,4-dimethyl-1,3-thiazol-5-yl)pyrimidine-2-amine]",≥ 70,–,–,–,2.8

# Source: patent US20090030024A1, “THIAZOLES AS FUNGICIDES” (priority 2005, published 2009)
